Data on 39 compounds can be found in PubChem BioAssay AID624167 (Sanford-Burnham Center for Chemical Genomics, 2012).

Structures are written as SMILES. Activity calls are given as the source filed them.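 The calls were made as follows: active = mean IC50 for reducing PEG3 promoter reporter signal at or below a set limit, with IC50 above the limit in both counter screens; inactive = the rest, including counter screen hits.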

In assay [1] the target is PEG-3 (UniProt Q6IN02). Description: inhibition of PEG-3 promoter-driven reporter – cell-based, HeLa, luciferase, CREF/GAPDH counter-screen panel, dose response (AID 624167). Conditions: HeLa PEG-Prom luciferase reporter, overnight, CREF/GAPDH counter-screens, mean of runs. On the technique in general: A counterscreen serves to expose hits that act by an unwanted route or on another target.

Assay [2] deals with PEG-3. The description is as above. The conditions noted are these: HeLa PEG-Prom luciferase reporter, overnight, CREF/GAPDH counter-screens. In general terms: In a reporter assay the amount or activity of a reporter protein is the signal.
[3] abbreviates: run 1, dose range 1, individual replicate IC50 per panel.
The mark [4] stands for this setting: run 2, dose range 1, individual replicate IC50 per panel.

Chain of PEG-3 (UniProt Q6IN02) (Q6IN02 whole entry, looked up): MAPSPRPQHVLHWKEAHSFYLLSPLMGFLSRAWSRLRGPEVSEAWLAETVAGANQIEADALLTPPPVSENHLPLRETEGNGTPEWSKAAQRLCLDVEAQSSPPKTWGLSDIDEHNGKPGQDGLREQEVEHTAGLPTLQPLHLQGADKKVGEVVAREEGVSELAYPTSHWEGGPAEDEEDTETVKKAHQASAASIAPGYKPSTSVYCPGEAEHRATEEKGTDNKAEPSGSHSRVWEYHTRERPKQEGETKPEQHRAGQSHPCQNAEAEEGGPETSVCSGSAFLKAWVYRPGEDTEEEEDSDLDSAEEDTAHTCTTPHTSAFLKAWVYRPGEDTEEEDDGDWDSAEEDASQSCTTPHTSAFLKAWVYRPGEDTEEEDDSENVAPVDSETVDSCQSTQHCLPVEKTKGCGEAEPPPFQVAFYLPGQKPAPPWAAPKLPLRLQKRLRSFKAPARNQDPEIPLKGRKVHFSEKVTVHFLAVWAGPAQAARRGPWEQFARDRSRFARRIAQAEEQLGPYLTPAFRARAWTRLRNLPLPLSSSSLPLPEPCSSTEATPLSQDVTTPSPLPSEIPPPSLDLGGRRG

For the compound `CN(Cc1ccccc1)C(=O)c1ccc(Nc2nc(C(N)Cc3ccccc3)cs2)nc1` (configuration not stated), the values for the IC50 at PEG-3 [1], in the assay with PEG-3 [2] (setting [3]) and in the assay with PEG-3 [2] (setting [4]) were 18.3 µM, 21.8 µM and 14.8 µM, respectively.

With `CN1CCN(c2ccc(NC(=O)N3CCc4ccccc43)cc2)CC1`, the IC50 – broadly, the concentration that inhibits the measured activity by half – on PEG-3 [1] is “inactive”. For the same compound, the IC50 in the assay with PEG-3 [2] (setting [3]) was 15 µM; in the assay with PEG-3 [2] (setting [4]) it was 38.8 µM.

With `FC(F)Sc1ccc(NC(=S)NC(c2ccccc2)c2ccccc2)cc1`, the IC50 is 18 µM at PEG-3 [1], 19.9 µM with PEG-3 [2] (setting [3]) and 16 µM in the assay on PEG-3 [2] (setting [4]).

Turning to `CCOC(=O)c1cccc(Nc2nc(-c3cccnc3)nc3ccccc23)c1`, the IC50 was 11.8 µM at PEG-3 [1], 12.1 µM with PEG-3 [2] (setting [3]) and 11.4 µM with PEG-3 [2] (setting [4]).

Regarding `CC(=O)c1cccc(-c2csc3ncnc(Sc4nnnn4C)c23)c1`, the IC50 was 15.7 µM at PEG-3 [1], 16 µM with PEG-3 [2] (setting [3]) and 15.3 µM with PEG-3 [2] (setting [4]).

`COc1cc(NC(=O)Nc2nc(C(N)CCc3ccccc3)cs2)cc(OC)c1OC` (configuration not stated): the IC50 entry at PEG-3 [1] is “inactive”. Moreover, the IC50 in the assay on PEG-3 [2] (setting [3]) is 21.3 µM; with PEG-3 [2] (setting [4]), 40.6 µM.

For the compound `Cn1cc(CN2CCCC(C(=O)Nc3ccc(-c4cccc(F)c4)cc3)C2)cn1` (configuration not stated), the IC50 result at PEG-3 [1] was “inactive”. The IC50 was 19.6 µM in the assay on PEG-3 [2] (setting [3]) and 29.8 µM in the assay on PEG-3 [2] (setting [4]).

In the case of `CN(Cc1ccccc1F)C(=O)C(Cc1ccccc1)NC(=O)c1ccccc1` (configuration not stated), the IC50 entry at PEG-3 [1] is “inactive”. In addition, the IC50 with PEG-3 [2] (setting [3]) was 32.3 µM; in the assay on PEG-3 [2] (setting [4]), 95.6 µM.

Take `CCN(Cc1ccccc1)S(=O)(=O)c1ccc(C(=O)N(CCCN(C)C)c2nc3cc4c(cc3s2)OCO4)cc1`: the figures for the IC50 at PEG-3 [1], in the assay on PEG-3 [2] (setting [3]) and with PEG-3 [2] (setting [4]) were 17.8 µM, 19.6 µM and 16 µM, respectively.

Regarding `NC(=O)C1CCN(C2=C(Cl)C(=O)c3ccccc3C2=O)CC1`, the IC50 on PEG-3 [1] is 17.3 µM; in the assay on PEG-3 [2] (setting [3]), 17.9 µM; with PEG-3 [2] (setting [4]), 16.6 µM.

For the compound `Cc1cc(-n2c(SCC(=O)Nc3ccc(F)c(F)c3)nc3n[nH]c(C)c3c2=N)ccc1Cl`, the IC50 entry on PEG-3 [1] was “inactive”. Besides, the IC50 in the assay with PEG-3 [2] (setting [3]) came to 41 µM; in the assay on PEG-3 [2] (setting [4]), 30.3 µM.

Regarding `COc1ccc(CCNC(=O)C(=O)NCC2CCCN2S(=O)(=O)c2ccccc2)cc1OC` (configuration not stated), the IC50 entry on PEG-3 [1] was “inactive”. The IC50 in the assay on PEG-3 [2] (setting [3]) was determined as 29.8 µM; in the assay on PEG-3 [2] (setting [4]), 39.3 µM.

On to `CCOC(=O)CN(C(=O)CSc1nnc2c(n1)[nH]c1ccc(F)cc12)c1ccccc1`, for which, at PEG-3 [1], the IC50 result is “inactive”. Also, the IC50 in the assay with PEG-3 [2] (setting [3]) was 25 µM; in the assay with PEG-3 [2] (setting [4]), 21.7 µM.

Regarding `COc1ccc(-n2cc(CNC3CCN(C)CC3)c(-c3cccc(F)c3)n2)cc1`, the IC50 entry at PEG-3 [1] is “inactive”. In addition, the IC50 in the assay on PEG-3 [2] (setting [3]) turned out to be 26 µM; in the assay on PEG-3 [2] (setting [4]) it was 15.3 µM.

Turning to `N#Cc1cc2c(nc1SC1CC(=O)N(c3ccccc3)C1=O)CCC2` (configuration not stated), on PEG-3 [1], the IC50 entry is “inactive”. Moreover, the IC50 with PEG-3 [2] (setting [3]) is over 100 µM; with PEG-3 [2] (setting [4]), 1.02 µM.

For the compound `COc1ccc(CC(N)c2csc(Nc3cccc(OC)n3)n2)cc1` (configuration not stated), the IC50 on PEG-3 [1] is 15.9 µM; with PEG-3 [2] (setting [3]), 17.6 µM; in the assay with PEG-3 [2] (setting [4]), 14.2 µM.

For the compound `c1ccc(CN=C(NCc2ccccc2)NCc2ccccc2)cc1`, the IC50 result on PEG-3 [1] is “inactive”. Besides, the half-inhibitory concentration (IC50) worked out at 23.4 µM with PEG-3 [2] (setting [3]) and 41.9 µM in the assay with PEG-3 [2] (setting [4]).

As for `CC(C)(C)c1ccc(/C=N/Nc2ccc(C(=O)O)cc2)cc1`, at PEG-3 [1], the IC50 entry is “inactive”. The IC50 in the assay on PEG-3 [2] (setting [3]) was 36.7 µM; in the assay with PEG-3 [2] (setting [4]), 28 µM.

In the case of `COc1ccc(/C=C/C(=O)c2ccc3c4c(cccc24)CC3)cc1OC`, the IC50 entry at PEG-3 [1] is “inactive”. Also, the figures for the IC50 with PEG-3 [2] (setting [3]) and in the assay with PEG-3 [2] (setting [4]) were 31.6 µM and 42 µM, respectively.

Regarding `O=C1NC(=O)N(Cc2ccccc2)C(=O)/C1=C\C=C\c1ccco1`, the IC50 was 13.5 µM on PEG-3 [1], 15.1 µM with PEG-3 [2] (setting [3]) and 12 µM with PEG-3 [2] (setting [4]).

In the case of `COC(=O)c1ccc(Nc2cc(C)nc3ccc(C)cc23)cc1`, the IC50 is 13.6 µM at PEG-3 [1], 17.9 µM in the assay on PEG-3 [2] (setting [3]) and 9.4 µM in the assay with PEG-3 [2] (setting [4]).

For the compound `Cc1ccc(-n2cc(CNCCCn3ccnc3C)c(-c3ccc(F)cc3)n2)cc1`, the IC50 on PEG-3 [1] is 13 µM; in the assay on PEG-3 [2] (setting [3]), 15.5 µM; with PEG-3 [2] (setting [4]), 10.6 µM.

Turning to `O=C(CCN1C(=O)/C(=C/c2ccc(F)cc2)SC1=S)N[C@@H](CO)Cc1ccccc1`, at PEG-3 [1], the IC50 result is “inactive”. The IC50 was 12.1 µM in the assay with PEG-3 [2] (setting [3]) and over 100 µM with PEG-3 [2] (setting [4]).

Take `CC1CCCCN1CCNC(=O)c1ccc2c(=O)n(Cc3ccc(Cl)cc3)c(=S)[nH]c2c1` (configuration not stated): the IC50 entry on PEG-3 [1] is “inactive”. The IC50 with PEG-3 [2] (setting [3]) was 19.6 µM; in the assay on PEG-3 [2] (setting [4]) it was 25.3 µM.

On to `C/C(=N\N=C(N)N)c1ccc(Cl)c(Cl)c1`, for which the concentration for half-maximal inhibition (IC50) on PEG-3 [1] was 18.7 µM; with PEG-3 [2] (setting [3]), 20.3 µM; in the assay on PEG-3 [2] (setting [4]), 17 µM.

For the compound `CC(C)(c1ccccc1)c1ccc(OCC(O)CNC2CCN(Cc3ccccc3)CC2)cc1` (configuration not stated), the IC50 at PEG-3 [1] is 15.7 µM; in the assay on PEG-3 [2] (setting [3]), 21.9 µM; in the assay with PEG-3 [2] (setting [4]), 9.42 µM.

`Cc1ccc(-c2nc(C(Cl)Cl)c3ccccc3n2)cc1`: on PEG-3 [1], the IC50 entry was “inactive”. Besides, the results for the concentration for half-maximal inhibition (IC50) in the assay on PEG-3 [2] (setting [3]) and in the assay with PEG-3 [2] (setting [4]) were over 100 µM and 9.67 µM, respectively.

Turning to `CCC(=O)NC(c1cccs1)c1cc([N+](=O)[O-])c2cccnc2c1O` (configuration not stated), the values for the IC50 at PEG-3 [1], with PEG-3 [2] (setting [3]) and in the assay with PEG-3 [2] (setting [4]) were 12.1 µM, 12.4 µM and 11.7 µM, respectively.

On to `COC(=O)Cc1[nH]n(-c2nc3ccccc3s2)c(=O)c1C(C)=Nc1ccc(Cl)cc1`, for which the values for the IC50 at PEG-3 [1], with PEG-3 [2] (setting [3]) and in the assay on PEG-3 [2] (setting [4]) were 12.5 µM, 24.7 µM and 0.372 µM, respectively.

As to `Cc1nn(C(C)(C)C)c(C)c1/C=N/OC(=O)Nc1ccc(Cl)cc1`, the IC50 was 3.17 µM on PEG-3 [1], 6.13 µM in the assay with PEG-3 [2] (setting [3]) and under 0.2 µM in the assay on PEG-3 [2] (setting [4]).

As for `COc1ccc(-c2nc3c(C(=O)NCCN(C)C)cccc3c3ccccc23)cc1`, the IC50 at PEG-3 [1] was 15 µM; in the assay on PEG-3 [2] (setting [3]) it was 17.3 µM; with PEG-3 [2] (setting [4]), 12.8 µM.

Consider `Cc1ccc(CC2(OCCN(C)C)CCC(C(C)(C)C)CC2)cc1` (configuration not stated), for which the IC50 at PEG-3 [1] was 16.8 µM; in the assay with PEG-3 [2] (setting [3]), 19.1 µM; in the assay with PEG-3 [2] (setting [4]), 14.6 µM.

For `NCCc1c(-c2ccccc2)n(-c2ccccc2)c2ccccc12`, the IC50 on PEG-3 [1] is 12.9 µM; in the assay on PEG-3 [2] (setting [3]) it was 17.4 µM; with PEG-3 [2] (setting [4]), 8.4 µM.

Consider `O=C(Nc1ccc(S(=O)(=O)NC2=NCCCCC2)cc1)c1ccc([N+](=O)[O-])s1`, for which the IC50 was 15.4 µM on PEG-3 [1], 19.2 µM in the assay with PEG-3 [2] (setting [3]) and 11.7 µM in the assay with PEG-3 [2] (setting [4]).

As to `c1ccc(-c2cc(-c3nc4ccccc4[nH]3)c3ccccc3n2)cc1`, on PEG-3 [1], the IC50 result was “inactive”. Besides, the IC50 in the assay with PEG-3 [2] (setting [3]) is 15.3 µM; in the assay on PEG-3 [2] (setting [4]), 39.9 µM.

On to `O=C(/C=C/c1ccccc1)NC(NC(=S)Nc1cccc(Cl)c1)C(Cl)(Cl)Cl` (configuration not stated), for which the results for the IC50 at PEG-3 [1], in the assay with PEG-3 [2] (setting [3]) and in the assay on PEG-3 [2] (setting [4]) were 14.3 µM, 18 µM and 10.6 µM, respectively.

In the case of `COc1ccccc1CN(C)C(=O)c1cc(-c2cc(OC)c(OC)c(OC)c2)nc2ccccc12`, at PEG-3 [1], the IC50 result is “inactive”. Also, the IC50 in the assay on PEG-3 [2] (setting [3]) was 19.2 µM; in the assay with PEG-3 [2] (setting [4]), 40 µM.

Turning to `c1ccc(CCCNCCCn2cnc3c(OCc4ccccc4)ncnc32)cc1`, at PEG-3 [1], the IC50 entry is “inactive”. Further, the results for the IC50 in the assay with PEG-3 [2] (setting [3]) and with PEG-3 [2] (setting [4]) were 34.7 µM and 19.5 µM, respectively.

Take `O=c1[nH]c(=S)[nH]c(O)c1/C=C1\C=Nc2ccccc21`: the IC50 result at PEG-3 [1] was “inactive”. Moreover, the IC50 in the assay with PEG-3 [2] (setting [3]) is over 100 µM; with PEG-3 [2] (setting [4]), 17.6 µM.
